Laboratory results: patent US4547492A, “1-N-(ω-Amino-α-hydroxyalkanoyl-2',3'-dideoxykanamycin A and pharmaceutical composition containing same” (Zaidan Hojin Biseibutsu Kagaku Kenkyu Kai, priority 1983, dated 1985)
Values after ≈ are worked out from the molar mass of the structure shown. Like-named read-outs stand apart in the source and are kept apart here.

Experiments:
[1] = test system: Bacillus subtilis PCI 219; assay: MIC, serial dilution on nutrient agar; format: cell-based; conditions: PCI219, B. subtilis PCI 219, 37° C., 18 hours
Experimental: (§1) For comparison purpose, the minimum inhibitory concentrations (MIC.) of 1-N-(L-4-amino-2-hydroxybutyryl)-kanamycin A, namely amikacin and of 2',3'-dideoxykanamycin A (abbreviated as DKA) are also shown in Table 1.
(§2) The minimum inhibitory concentrations (mcg/ml) of these kanamycin A derivatives against the various bacteria were determined according to a standard serial dilution method on a nutrient agar medium at 37° C., the estimation being made after 18 hours incubation.

[2] = test system: Pseudomonas aeruginosa B-13; assay: MIC, serial dilution on nutrient agar; format: cell-based
Experimental: as §1, §2

[3] = test system: Pseudomonas aeruginosa A3; assay: MIC, serial dilution on nutrient agar; format: cell-based; conditions: P. aeruginosa A3, 37° C., 18 hours
Experimental: as §1, §2

[4] = test system: Staphylococcus aureus 209P; assay: MIC, serial dilution on nutrient agar; format: cell-based; conditions: S. aureus 209P, 37° C., 18 hours
Experimental: as §1, §2

Escherichia coli ML R 81 = assay: MIC, serial dilution on nutrient agar; format: cell-based
Experimental: as §1, §2

[5] = test system: Pseudomonas aeruginosa K-Ps 102; assay: MIC, serial dilution on nutrient agar; format: cell-based
Experimental: as §1, §2

Escherichia coli ML 1629 = assay: MIC, serial dilution on nutrient agar; format: cell-based
Experimental: as §1, §2

[6] = test system: Pseudomonas aeruginosa H9; assay: MIC, serial dilution on nutrient agar; format: cell-based
Experimental: as §1, §2

[7] = test system: Staphylococcus aureus Ap 01; assay: MIC, serial dilution on nutrient agar; format: cell-based
Experimental: as §1, §2

Escherichia coli ML 1630 = assay: MIC, serial dilution on nutrient agar; format: cell-based; conditions: ML1630, E. coli ML 1630, 37° C., 18 hours
Experimental: as §1, §2

Escherichia coli J5R11-2 = assay: microbe, parasite or virus in culture; conditions: J5R112, 18 h
Experimental: as §1, §2

[8] = test system: Serratia marcescens I-0162; assay: MIC, serial dilution on nutrient agar; format: cell-based
Experimental: as §1, §2

Serratia sp. 4 = assay: MIC, serial dilution on nutrient agar; format: cell-based; conditions: 37° C., 18 hours
Experimental: as §1, §2

[9] = test system: Serratia marcescens I-0111; assay: MIC, serial dilution on nutrient agar; format: cell-based
Experimental: as §1, §2

[10] = test system: Serratia marcescens I-0115; assay: MIC, serial dilution on nutrient agar; format: cell-based
Experimental: as §1, §2

[11] = test system: Serratia marcescens I-0139; assay: MIC, serial dilution on nutrient agar; format: cell-based; conditions: I0139, S. marcescens I-0139, 37° C., 18 hours
Experimental: as §1, §2

Proteus rettgeri GN 311 = assay: MIC, serial dilution on nutrient agar; format: cell-based; conditions: Providencia rettgeri, GN311, 37° C., 18 hours
Experimental: as §1, §2

[12] = acute toxicity by intravenous injection in mice; conditions: mouse, in vivo
[13] = MLR81, E. coli ML R 81, nutrient agar, 37° C., 18 hours, read-out: MIC.
[14] = ML1629, E. coli ML 1629, nutrient agar, 37° C., 18 hours, read-out: MIC.
[15] = AP01, S. aureus Ap 01, nutrient agar, 37° C., 18 hours, read-out: MIC.
[16] = P. aeruginosa H9, nutrient agar, 37° C., 18 hours, read-out: MIC.
[17] = I0111, S. marcescens I-0111, nutrient agar, 37° C., 18 hours, read-out: MIC.
[18] = I0115, S. marcescens I-0115, nutrient agar, 37° C., 18 hours, read-out: MIC.

SMILES	MIC [1] [µg/mL]	MIC ([2]; B13, 18 h) [µg/mL]	MIC [3] [µg/mL]	MIC [4] [µg/mL]	MIC (Escherichia coli ML R 81; [13]) [µg/mL]	MIC ([5]; KPS102, 18 h) [µg/mL]	MIC (Escherichia coli ML 1629; [14]) [µg/mL]	MIC [7, 15] [µg/mL]	MIC (Escherichia coli ML 1630) [µg/mL]	MIC (Escherichia coli J5R11-2) [µg/mL]	MIC ([8]; I0162, 18 h) [µg/mL]	MIC (Serratia sp. 4) [µg/mL]	MIC [6, 16] [µg/mL]	MIC [11] [µg/mL]	MIC (Proteus rettgeri GN 311) [µg/mL]	LD50 [12] [mg/kg]	MIC [9, 17] [µg/mL]	MIC [10, 18] [µg/mL]	other results
NC[C@H]1O[C@H](O[C@H]2[C@H](O)[C@@H](O[C@H]3O[C@H](CO)[C@@H](O)[C@H](N)[C@H]3O)[C@H](N)C[C@@H]2N)CC[C@@H]1O [DKA, 2',3'-dideoxykanamycin A]	0.39 (≈ 0.862 µM)	12.5 (≈ 27.6 µM)	1.56 (≈ 3.45 µM)	1.56 (≈ 3.45 µM)	3.13 (≈ 6.92 µM)	6.25 (≈ 13.8 µM)	1.56 (≈ 3.45 µM)	3.13 (≈ 6.92 µM)	3.13 (≈ 6.92 µM)	3.12 (≈ 6.89 µM)									MIC ([6]; H9, 18 h): 6.25 µg/mL (≈ 13.8 µM)
NCC[C@H](O)C(=O)N[C@@H]1C[C@H](N)[C@@H](O[C@@H]2CC[C@H](O)[C@@H](CN)O2)[C@H](O)[C@H]1O[C@H]1O[C@H](CO)[C@@H](O)[C@H](N)[C@H]1O [AHDK]	0.2 (≈ 0.361 µM)	12.5 (≈ 22.6 µM)	0.78 (≈ 1.41 µM)	0.1 (≈ 0.181 µM)	1.56 (≈ 2.82 µM)	6.25 (≈ 11.3 µM)	1.56 (≈ 2.82 µM)	0.39 (≈ 0.704 µM)	1.56 (≈ 2.82 µM)	0.78 (≈ 1.41 µM)	6.25 (≈ 11.3 µM)	1.56 (≈ 2.82 µM)	3.13 (≈ 5.65 µM)	12.5 (≈ 22.6 µM)	0.39 (≈ 0.704 µM)	326			MIC ([9]; I0111, 18 h): 6.25 µg/mL (≈ 11.3 µM); MIC ([10]; I0115, 18 h): 6.25 µg/mL (≈ 11.3 µM)
NC[C@H](O)C(=O)N[C@@H]1C[C@H](N)[C@@H](O[C@@H]2CC[C@H](O)[C@@H](CN)O2)[C@H](O)[C@H]1O[C@H]1O[C@H](CO)[C@@H](O)[C@H](N)[C@H]1O [ISDK, 1-N-(L-3-amino-2-hydroxy-propionyl)-2',3'-dideoxykanamycin A]	0.39 (≈ 0.723 µM)	12.5 (≈ 23.2 µM)	0.78 (≈ 1.45 µM)	0.2 (≈ 0.371 µM)	1.56 (≈ 2.89 µM)	6.25 (≈ 11.6 µM)	1.56 (≈ 2.89 µM)	0.78 (≈ 1.45 µM)	3.13 (≈ 5.8 µM)	0.78 (≈ 1.45 µM)	6.25 (≈ 11.6 µM)	1.56 (≈ 2.89 µM)	3.13 (≈ 5.8 µM)	6.25 (≈ 11.6 µM)	0.39 (≈ 0.723 µM)	240	3.13 (≈ 5.8 µM)	3.13 (≈ 5.8 µM)	
NCC[C@H](O)C(=O)N[C@@H]1C[C@H](N)[C@@H](O[C@H]2O[C@H](CN)[C@@H](O)[C@H](O)[C@H]2O)[C@H](O)[C@H]1O[C@H]1O[C@H](CO)[C@@H](O)[C@H](N)[C@H]1O [Amikacin, 1-N-(L-4-amino-2-hydroxybutyryl)-kanamycin A, reference compound]	0.39 (≈ 0.666 µM)		< 0.2	0.78 (≈ 1.33 µM)					3.13 (≈ 5.34 µM)	1.56 (≈ 2.66 µM)		3.13 (≈ 5.34 µM)	6.25 (≈ 10.7 µM)	100 (≈ 171 µM)	0.39 (≈ 0.666 µM)		25 (≈ 42.7 µM)	50 (≈ 85.4 µM)	MIC ([8]; I0162, S. marcescens I-0162, nutrient agar, 37° C., 18 hours, read-out: MIC.): 50 µg/mL (≈ 85.4 µM); MIC ([2]; B13, P. aeruginosa B-13, nutrient agar, 37° C., 18 hours, read-out: MIC.): 6.25 µg/mL (≈ 10.7 µM); MIC (Escherichia coli ML R 81; MLR81, 18 h): 1.56 µg/mL (≈ 2.66 µM); MIC ([5]; KPS102, P. aeruginosa K-Ps 102, nutrient agar, 37° C., 18 hours, read-out: MIC.): 6.25 µg/mL (≈ 10.7 µM); MIC (Escherichia coli ML 1629; ML1629, 18 h): 1.56 µg/mL (≈ 2.66 µM); MIC ([7]; AP01, 18 h): 1.56 µg/mL (≈ 2.66 µM)
